In patent US9708315B2, “1,2,4-triazolo[4,3-a]pyridine compounds and their use as positive allosteric modulators of MGLUR2 receptors” (Janssen Pharmaceutica NV, priority 2013, dated 2017):

target: T1, human mGlu2 receptor (Homo sapiens, UniProt Q14416); assay: [35S]GTPγS binding assay, mGluR2 PAM; assay type: biochemical; conditions: GTPγS - hmGluR2 PAM pEC50, in presence of glutamate at EC20; EC50 expressed in M
T1 construct: expressed in transfected cells; host or cells: CHO cells
Description: [^35S]GTPγS Binding Assay
The [^35S]GTPγS binding assay is a functional membrane-based assay used to study G-protein coupled receptor (GPCR) function whereby incorporation of a non-hydrolysable form of GTP, [^35S]GTPγS (guanosine 5′-triphosphate, labelled with […] ^35S), is measured.
Cells were then collected by scraping in PBS and cell suspension was centrifuged (10 min at 4000 RPM in benchtop centrifuge). Supernatant was discarded and pellet gently resuspended in 50 mM Tris-HCl, pH 7.4 by mixing with a vortex and pipetting up and down. The suspension was centrifuged at 16,000 RPM (Sorvall RC-5C plus rotor SS-34) for 10 minutes and the supernatant discarded. The pellet was homogenized in 5 mM Tris-HCl, pH 7.4 using an ultra-turrax homogenizer and centrifuged again (18,000 RPM, 20 min, 4° C.). The final pellet was resuspended in 50 mM Tris-HCl, pH 7.4 and stored at −80° C. in appropriate aliquots before use. Protein concentration was determined by the Bradford method (Bio-Rad, USA) with bovine serum albumin as standard.
Measurement of mGluR2 positive allosteric modulatory activity of test compounds was performed as follows. Test compounds and glutamate were diluted in assay buffer containing 10 mM HEPES acid, 10 mM HEPES salt, pH 7.4, 100 mM NaCl, 3 mM MgCl2 and 10 μM GDP. Human mGlu2 receptor-containing membranes were thawed on ice and diluted in assay buffer supplemented with 14 μg/ml saponin. Membranes were pre-incubated with compound alone or together with a predefined (˜EC20) concentration of glutamate (PAM assay) for 30 min at 30° C. After addition of [^35S]GTPγS (f c. 0.1 nM), assay mixtures were shaken briefly and further incubated to allow [^35S]GTPγS incorporation on activation (30 minutes, 30° C.). Final assay mixtures contained 7 μg of membrane protein in 10 mM HEPES acid, 10 mM HEPES salt, pH 7.4, 100 mM NaCl, 3 mM MgCl2, 10 μM GDP and 2 μg/ml saponin. […] Filters were washed 6 times with ice-cold 10 mM NaH2PO4/10 mM Na2HPO4, pH 7.4. Filters were then air-dried, and 40 μl of liquid scintillation cocktail (Microscint-O) was added to each well. Membrane-bound radioactivity was counted in a Microplate Scintillation and Luminescence Counter from Perkin Elmer.
The concentration-response curves of representative compounds of the present invention—obtained in the presence of EC20 of mGluR2 agonist glutamate to determine positive allosteric modulation (PAM)—were generated using the Lexis software interface (developed at J&J). Data were calculated as % of the control glutamate response, defined as the maximal response that is generated upon addition of glutamate alone. Sigmoid concentration-response curves plotting these percentages versus the log concentration of the test compound were analyzed using non-linear regression analysis. The concentration producing half-maximal effect is then calculated as EC50.
The pEC50 values below were calculated as the −log EC50, when the EC50 is expressed in M. Emax is defined as relative maximal effect (i.e. maximal % effect relative to the control glutamate response).
All compounds were tested in presence of mGluR2 agonist glutamate at a predetermined EC20 concentration, to determine positive allosteric modulation. pEC50 values were calculated from a concentration-response experiment of at least 8 concentrations.

T1 sequence (Q14416 19-872): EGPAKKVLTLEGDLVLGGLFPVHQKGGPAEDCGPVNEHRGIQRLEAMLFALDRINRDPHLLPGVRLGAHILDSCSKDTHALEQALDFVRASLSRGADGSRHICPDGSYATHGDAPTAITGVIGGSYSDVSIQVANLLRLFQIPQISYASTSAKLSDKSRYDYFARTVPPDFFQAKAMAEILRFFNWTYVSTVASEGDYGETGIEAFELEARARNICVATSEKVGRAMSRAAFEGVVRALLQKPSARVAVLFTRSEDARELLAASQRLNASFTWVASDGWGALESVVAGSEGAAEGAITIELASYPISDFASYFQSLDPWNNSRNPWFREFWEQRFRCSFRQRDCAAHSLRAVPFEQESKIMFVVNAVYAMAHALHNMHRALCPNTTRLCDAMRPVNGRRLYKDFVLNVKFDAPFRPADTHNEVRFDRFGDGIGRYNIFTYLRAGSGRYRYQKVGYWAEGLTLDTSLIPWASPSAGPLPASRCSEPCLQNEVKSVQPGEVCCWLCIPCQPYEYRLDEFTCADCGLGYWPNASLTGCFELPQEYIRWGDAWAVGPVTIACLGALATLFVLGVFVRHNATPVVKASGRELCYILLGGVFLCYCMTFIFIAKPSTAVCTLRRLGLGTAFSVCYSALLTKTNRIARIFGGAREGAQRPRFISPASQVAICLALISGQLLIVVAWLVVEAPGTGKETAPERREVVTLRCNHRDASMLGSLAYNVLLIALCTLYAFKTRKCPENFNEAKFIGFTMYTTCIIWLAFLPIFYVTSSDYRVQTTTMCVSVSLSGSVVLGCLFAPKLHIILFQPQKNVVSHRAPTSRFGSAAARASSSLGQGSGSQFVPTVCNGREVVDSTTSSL

SMILES	EC50
CC(Oc1ccc(F)cc1F)c1ccn2c(CC3CCC3)nnc2c1C(F)(F)F (single isomer, unassigned) [Compound 17, 3-(Cyclobutylmethyl)-7-[(1*R)-1-(2,4-difluorophenoxy)ethyl]-8-(trifluoromethyl)[1,2,4]triazolo[4,3-a]pyridine]	18.6 nM
CC(Oc1ccc(F)cc1F)c1ccn2c(CC3CCC3)nnc2c1C(F)(F)F (single isomer, unassigned) [Compound 18, 3-(Cyclobutylmethyl)-7-[(1*S)-1-(2,4-difluorophenoxy)ethyl]-8-(trifluoromethyl)[1,2,4]triazolo[4,3-a]pyridine]	575 nM
CCOCc1nnc2c(C(F)(F)F)c(C(C)Oc3c(F)cc(F)cc3F)ccn12 (single isomer, unassigned) [Compound 22, 3-(Ethoxymethyl)-8-(trifluoromethyl)-7-[(1*R)-1-(2,4,6-trifluorophenoxy)ethyl][1,2,4]triazolo[4,3-a]pyridine]	24.5 nM
CCOCc1nnc2c(C(F)(F)F)c(C(C)Oc3c(F)cc(F)cc3F)ccn12 (single isomer, unassigned) [Compound 23, 3-(Ethoxymethyl)-8-(trifluoromethyl)-7-[(1*S)-1-(2,4,6-trifluorophenoxy)ethyl][1,2,4]triazolo[4,3-a]pyridine]	1150 nM
CC(Oc1ccc(F)cc1F)c1ccn2c(CC3CCC3)nnc2c1C(F)(F)F (centres unmarked) [Compound 16, 3-(Cyclobutylmethyl)-7-[1-(2,4-difluorophenoxy)ethyl]-8-(trifluoromethyl)[1,2,4]triazolo[4,3-a]pyridine]	28.8 nM

same assay, conditions: in presence of glutamate at EC20; EC50 expressed in M; read-out: GTPγS - hmGluR2 PAM pEC50 (converted)

EC50	SMILES
145 nM	CC(Oc1ccc(F)cc1)c1ccn2c(CC3CC3)nnc2c1C(F)(F)F (single isomer, unassigned) [Compound 2, 3-(Cyclopropylmethyl)-7-[(1*R)-1-(4-fluorophenoxy)ethyl]-8-(trifluoromethyl)[1,2,4]triazolo[4,3-a]pyridine]
1620 nM	CC(Oc1ccc(F)cc1)c1ccn2c(CC3CC3)nnc2c1C(F)(F)F (single isomer, unassigned) [Compound 3, 3-(Cyclopropylmethyl)-7-[(1*S)-1-(4-fluorophenoxy)ethyl]-8-(trifluoromethyl)[1,2,4]triazolo[4,3-a]pyridine]
89.1 nM	CCCc1nnc2c(C(F)(F)F)c(C(C)Oc3ccc(F)cc3F)ccn12 (single isomer, unassigned) [Compound 31]
1950 nM	CCCc1nnc2c(C(F)(F)F)c(C(C)Oc3ccc(F)cc3F)ccn12 (single isomer, unassigned) [Compound 32]
257 nM	CC(Oc1ccc(F)cc1)c1ccn2c(CC3CC3)nnc2c1C(F)(F)F (centres unmarked) [Compound 1, 3-(Cyclopropylmethyl)-7-[1-(4-fluorophenoxy)ethyl]-8-(trifluoromethyl)[1,2,4]triazolo[4,3-a]pyridine]
91.2 nM	CC(Oc1ccc(F)cc1F)c1ccn2c(CC3CC3)nnc2c1C(F)(F)F (centres unmarked) [Compound 4, 3-(Cyclopropylmethyl)-7-[1-(2,4-difluorophenoxy)ethyl]-8-(trifluoromethyl)[1,2,4]triazolo[4,3-a]pyridine]
871 nM	C[C@@H](Oc1ccc(F)cc1F)c1ccn2c(CC3CC3)nnc2c1C(F)(F)F [Compound 5, 3-(Cyclopropylmethyl)-7-[(1R)-1-(2,4-difluorophenoxy)ethyl]-8-(trifluoromethyl)[1,2,4]triazolo[4,3-a]pyridine]
49 nM	C[C@H](Oc1cc(F)cc(F)c1)c1ccn2c(CC3CC3)nnc2c1C(F)(F)F [Compound 7, 3-(Cyclopropylmethyl)-7-[(1S)-1-(3,5-difluorophenoxy)ethyl]-8-(trifluoromethyl)[1,2,4]triazolo[4,3-a]pyridine]
91.2 nM	C[C@H](Oc1ccc(F)c(F)c1)c1ccn2c(CC3CC3)nnc2c1C(F)(F)F [Compound 8, 3-(Cyclopropylmethyl)-7-[(1S)-1-(3,4-difluorophenoxy)ethyl]-8-(trifluoromethyl)[1,2,4]triazolo[4,3-a]pyridine]
50.1 nM	C[C@H](Oc1cccc(F)c1F)c1ccn2c(CC3CC3)nnc2c1C(F)(F)F [Compound 9, 3-(Cyclopropylmethyl)-7-[(1S)-1-(2,3-difluorophenoxy)ethyl]-8-(trifluoromethyl)[1,2,4]triazolo[4,3-a]pyridine]
33.9 nM	C[C@H](Oc1cc(F)ccc1F)c1ccn2c(CC3CC3)nnc2c1C(F)(F)F [Compound 10, 3-(Cyclopropylmethyl)-7-[(1S)-1-(2,5-difluorophenoxy)ethyl]-8-(trifluoromethyl)[1,2,4]triazolo[4,3-a]pyridine]
5.62 nM	C[C@H](Oc1c(F)cccc1F)c1ccn2c(CC3CC3)nnc2c1C(F)(F)F [Compound 11, 3-(Cyclopropylmethyl)-7-[(1S)-1-(2,6-difluorophenoxy)ethyl]-8-(trifluoromethyl)[1,2,4]triazolo[4,3-a]pyridine]
102 nM	COc1cc(F)ccc1O[C@@H](C)c1ccn2c(CC3CC3)nnc2c1C(F)(F)F [Compound 12, 3-(Cyclopropylmethyl)-7-[(1S)-1-(4-fluoro-2-methoxyphenoxy)ethyl]-8-(trifluoromethyl)[1,2,4]triazolo[4,3-a]pyridine]
17.8 nM	Cc1ccc(O[C@@H](C)c2ccn3c(CC4CC4)nnc3c2C(F)(F)F)c(Cl)c1 [Compound 13, 7-[(1S)-1-(2-Chloro-4-methylphenoxy)ethyl]-3-(cyclopropylmethyl)-8-(trifluoromethyl)[1,2,4]triazolo[4,3-a]pyridine]
29.5 nM	Cc1cc(F)ccc1O[C@@H](C)c1ccn2c(CC3CC3)nnc2c1C(F)(F)F [Compound 14, 3-(Cyclopropylmethyl)-7-[(1 S)-1-(4-fluoro-2-methylphenoxy)ethyl]-8-(trifluoromethyl)[1,2,4]triazolo[4,3-a]pyridine]
126 nM	CCCc1nnc2c(C(F)(F)F)c(C(C)Oc3ccc(F)cc3F)ccn12 (centres unmarked) [Compound 30, 7-[1-(2,4-Difluorophenoxy)ethyl]-3-propyl-8-(trifluoromethyl)[1,2,4]triazolo[4,3-a]pyridine]

SMILES	EC50
CCOCc1nnc2c(C(F)(F)F)c(C(C)Oc3ccc(F)cc3F)ccn12 (single isomer, unassigned) [Compound 20, 7-[(1*R)-1-(2,4-Difluorophenoxy)ethyl]-3-(ethoxymethyl)-8-(trifluoromethyl)[1,2,4]triazolo[4,3-a]pyridine]	85.1 nM
CCOCc1nnc2c(C(F)(F)F)c(C(C)Oc3ccc(F)cc3F)ccn12 (single isomer, unassigned) [Compound 21, 7-[(1*S)-1-(2,4-Difluorophenoxy)ethyl]-3-(ethoxymethyl)-8-(trifluoromethyl)[1,2,4]triazolo[4,3-a]pyridine]	479 nM
C[C@H](Oc1c(F)cc(F)cc1F)c1ccn2c(CC3CC3)nnc2c1C(F)(F)F [Compound 15, 3-(Cyclopropylmethyl)-8-(trifluoromethyl)-7-[(1S)-1-(2,4,6-trifluorophenoxy)ethyl][1,2,4]triazolo[4,3-a]pyridine]	6.92 nM
CCOCc1nnc2c(C(F)(F)F)c(C(C)Oc3ccc(F)cc3F)ccn12 (centres unmarked) [Compound 19, 7-[1-(2,4-Difluorophenoxy)ethyl]-3-(ethoxymethyl)-8-(trifluoromethyl)[1,2,4]triazolo[4,3-a]pyridine]	195 nM

same assay, conditions: maximal % effect relative to the control glutamate response; glutamate at EC20

SMILES	GTPγS - hmGluR2 PAM Emax
CC(Oc1ccc(F)cc1F)c1ccn2c(CC3CCC3)nnc2c1C(F)(F)F (single isomer, unassigned) [Compound 18, 3-(Cyclobutylmethyl)-7-[(1*S)-1-(2,4-difluorophenoxy)ethyl]-8-(trifluoromethyl)[1,2,4]triazolo[4,3-a]pyridine]	213%

same assay, conditions: read-out: GTPγS - hmGluR2 PAM Emax, maximal % effect relative to the control glutamate response; glutamate at EC20

SMILES	Emax
CC(Oc1ccc(F)cc1F)c1ccn2c(CC3CCC3)nnc2c1C(F)(F)F (single isomer, unassigned) [Compound 17, 3-(Cyclobutylmethyl)-7-[(1*R)-1-(2,4-difluorophenoxy)ethyl]-8-(trifluoromethyl)[1,2,4]triazolo[4,3-a]pyridine]	317%
CC(Oc1ccc(F)cc1F)c1ccn2c(CC3CCC3)nnc2c1C(F)(F)F (centres unmarked) [Compound 16, 3-(Cyclobutylmethyl)-7-[1-(2,4-difluorophenoxy)ethyl]-8-(trifluoromethyl)[1,2,4]triazolo[4,3-a]pyridine]	284%
CCOCc1nnc2c(C(F)(F)F)c(C(C)Oc3ccc(F)cc3F)ccn12 (centres unmarked) [Compound 19, 7-[1-(2,4-Difluorophenoxy)ethyl]-3-(ethoxymethyl)-8-(trifluoromethyl)[1,2,4]triazolo[4,3-a]pyridine]	297%
